Measured values reported in patent US20230285402A1, “Compositions and Methods of Modulating Short-Chain Dehydrogenase Activity” (BOARD OF REGENTS OF THE UNIVERSITY OF TEXAS SYSTEM, priority 2013, published 2023).

How the values were obtained:
recombinant 15-PGDH [1] = target: T1, recombinant 15-PGDH (Homo sapiens (Human), UniProt P15428); assay: Melting temperature shift of recombinant 15-PGDH (SYPRO Orange); assay type: binding; details: Differential Scanning Fluorimetry; shifted from 50.5
[2] = tested on: 15-PGH-luciferase fusion protein reporter in the Vaco-9M (V9M) cell line; assay: 15-PGDH-luciferase fusion reporter induction in V9M cells; assay type: cell-based
Procedure: Some residual activity is seen for isomer B when added at 3.2 μM concentration. The small residual activity of isomer A may be due to possible 3% contamination with some residual isomer B.

recombinant 15-PGDH [3] = target: T1, recombinant 15-PGDH; assay: Inhibition of enzymatic activity of recombinant 15-PGDH in vitro (NADH generation); assay type: biochemical
mice [4] = assay: Immediate toxicity after IP injection into mice; assay type: in vivo; details: over 24 hours; 50 mg/kg body weight IP
[5] = tested on: PGE2 in colon, bone marrow, liver, lung; assay: PGE2 in mouse tissues after IP injection; assay type: in vivo; details: IP dose of 10 mg/kg body weight
Procedure: Shown is measurement by Elisa of PGE2 (ng PGE2/mg of tissue protein) from 4 mouse tissues: lung, liver, colon and bone marrow. […] Tissues were harvested for PGE2 assay at either 2 hour (2 h) or 3 hour (3 h) time points following drug injection.

[6] = Stability with mouse liver extracts; assay type: in vitro ADME
[7] = Stability with human liver extracts; assay type: in vitro ADME
[8] = Stability with rat liver extracts; assay type: in vitro ADME
mice [9] = assay: Homing of CFSE labeled donor bone marrow cells in lethally irradiated mice; assay type: in vivo, mouse; details: 10 mg/kg body weight
Procedure: Drugs are administered following radiation, following the transplant, and again at 8 hours after the transplant.

[10] = Chemical stability in aqueous solutions; assay type: physicochemical; details: broad pH range

T1 sequence (P15428 whole entry, the tested form may be a part): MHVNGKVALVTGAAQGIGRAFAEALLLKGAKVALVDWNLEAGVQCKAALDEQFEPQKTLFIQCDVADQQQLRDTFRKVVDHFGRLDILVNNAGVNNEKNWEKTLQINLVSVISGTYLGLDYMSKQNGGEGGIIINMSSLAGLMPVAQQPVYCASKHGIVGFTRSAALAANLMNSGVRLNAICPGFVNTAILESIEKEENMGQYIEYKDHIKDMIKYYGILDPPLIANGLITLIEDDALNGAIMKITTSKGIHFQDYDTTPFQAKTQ

Row | Compound | melting temperature (recombinant 15-PGDH [1]) [°C] | concentration for full activity [2] [µM] | IC50 lower than the parent racemic mixture (recombinant 15-PGDH [3]; vs racemic SW033291) [%] | immediate toxicity (mice [4]) | PGE2 levels in the colon, lung, liver and bone marrow [5] | stability when incubated with liver extracts [6] | stability when incubated with liver extracts [7] | stability when incubated with liver extracts [8] | concentration that inhibits recombinant 15-PGDH (recombinant 15-PGDH [3]; enzyme concentration approximately 6 nM) [nM] | homing of hematopoietic stem cells following bone marrow transplantation (mice [9]) | chemical stability in aqueous solutions [10]
1 | CCCC[S@](C)(O)c1sc2nc(-c3cccs3)cc(-c3ccccc3)c2c1N [SW033291 isomer B] | 68 | 0.1 | 40 |  |  |  |  |  |  |  | 
2 | CCCC[S+]([O-])c1sc2nc(-c3nccs3)cc(-c3cnc(C)n3C)c2c1N (centres unmarked) [formula (XIII)] |  |  |  | no immediate toxicity | elevates PGE2 levels | chemically stable | chemically stable | chemically stable | 3 | increases homing | chemically stable
